# US9457084B2, “Use of EP4 receptor antagonists in the treatment of IL-23 mediated diseases” (RAQUALIA PHARMA INC., priority 2010, dated 2016)
# “Also recorded” adds a separate entry of the source.
# Key:
# mice [1] = conditions: animal models; NPL 19 / NPL 21; cited from earlier work
# mice [2] = conditions: cited from earlier work
# rat = conditions: cited from earlier work
# mouse CD11c (+) cells = test: IL-23 production in CD11c dendritic cells (ELISA); type: cell-based; conditions: 10, 100, or 1000 nM; antibody to CD40, 36 hours; supernatant ELISA
# Method: CD11c dendritic cells (DCs) from the spleens of C57BL/6 mice were purified by auto-magnetic activated cell sorting. The DCs were cultured in a 96-well plate at a density of 6×10^5 cells per well in the presence of 10 microgram/mL antibody to CD40 for 36 hours. Compounds listed in FIG. 1, that is, Compound A (3-[2-(4-{2-ethyl-4,6-dimethyl-1H-imidazo[4,5-c]pyridin-1-yl}phenyl)ethyl]-1-[(4-methylbenzene)sulfonyl]urea) and Compound B (4-[(1S)-1-({[5-chloro-2-(3-fluorophenoxy)pyridin-3-yl]carbonyl}amino)ethyl]benzoic acid) were added at the beginning of incubation at a dose of 10, 100, or 1000 nM. The supernatant collected at the end of culture was measured by ELISA for IL-23.
# Balb/c male mice = test: DSS model (DSS-induced colitis); type: in vivo, mouse; conditions: 2.5% DSS for 7 days; 3 or 30 mg/kg orally for 7 days; evaluated day 11
# Method: Eight weeks-old Balb/c male mice were used in the study. Mice were allocated to four groups; normal control group, disease control group receiving vehicle, and two disease groups receiving different dose of Compound B. Colitis was induced by drinking 2.5% DSS (average molecular weight of 5,000) dissolved in water for 7 days. Compound B in 0.5% methyl cellulose solution (at a dose of 3 or 30 mg/kg) was orally administered for 7 days. The mice were sacrificed on day 11 and the colon was harvested for the evaluation. Colon length, colon weight, and histology score were analyzed. Histology score was determined as follows; 0=no signs of damage; 1=moderate inflammation; 2=severe inflammation.
# C57BL/6 male mice = test: Allergic contact dermatitis and psoriasis model (picryl chloride, ear swelling); type: in vivo, mouse
# Method: Eight weeks-old C57BL/6 male mice were used in the study. Mice were sensitized with 0.1 mL of 7% picryl chloride-ethanol on shaved abdominal skin on day O, Seven days later, the mice were treated with 0.02 mL of 1% picryl chloride-olive oil on both sides of the ear by painting. Ear thickness was measured using a thickness gage before the treatment, and 24 and 48 hours after the treatment, and the difference of ear thickness was used as a parameter of ear swelling. Compound B suspended in 0.5% methyl cellulose solution (at a dose of 3 or 30 mg/kg) was administered orally either during the entire experimental period (days 0 to 11) or elicitation (E) period (days 8 to 10).
# [3] = NPL 26; cited from earlier work
# [4] = NPL 27; cited from earlier work
Structure (SMILES),colitis score (Balb/c male mice),colon weight/length (Balb/c male mice),ear swelling (C57BL/6 male mice; treatment period not stated),other results
CC(C(=O)Nc1cc(C#N)ccc1CCCC(=O)O)c1ccc(F)c2ccccc12 (centres unmarked) [AE3-208],–,–,–,"effect on MS (mice [1]): treat MS; also recorded: ameliorate; effect on allergic contact dermatitis (mice [2]; animal models, NPL 19): ameliorate; efficacy on the development (sensitization) of allergic contact dermatitis (mice [2]; prophylactic (sensitization), NPL 25): potent inhibitory efficacy; efficacy by therapeutic treatment in allergic contact dermatitis (mice [2]; therapeutic treatment, NPL 25): failed to show the efficacy; effect on DSS-induced colitis (rat): aggravated"
"CCc1nc2c(C)nc(C)cc2n1-c1ccc(CCNC(=O)NS(=O)(=O)c2ccc(C)cc2)cc1 [Compound A, 3-[2-(4-{2-ethyl-4,6-dimethyl-1H-imidazo[4,5-c]pyridin-1-yl}phenyl)ethyl]-1-[(4-methylbenzene)sulfonyl]urea]",Dose-dependent reduction,Dose-dependent reduction,dose-dependent reduction,inhibition of IL-23 production (mouse CD11c (+) cells): dose-dependent inhibition
"C[C@H](NC(=O)c1cc(Cl)cnc1Oc1cccc(F)c1)c1ccc(C(=O)O)cc1 [Compound B, 4-[(1S)-1-({[5-chloro-2-(3-fluorophenoxy)pyridin-3-yl]carbonyl}amino)ethyl]benzoic acid]",restored,restored,–,"inhibition of IL-23 production (mouse CD11c (+) cells): dose-dependent inhibition; ear swelling (C57BL/6 male mice; 3 or 30 mg/kg orally during elicitation (E) period (days 8 to 10)): significantly reduced; ear swelling (C57BL/6 male mice; 3 or 30 mg/kg orally during entire experimental period (days 0 to 11)): significantly reduced; maximum efficacy on ear swelling compared with prednisolone (Pred) (C57BL/6 male mice; mouse, in vivo): equal to that of prednisolone"
"C[C@H](NC(=O)c1cc(Cl)cnc1COc1cccc(Cl)c1)c1ccc(C(=O)O)cc1 [Compound C, 4-{(1S)-1-[({5-chloro-2-[(3-chlorophenoxy)methyl]pyridin-3-yl}carbonyl)amino]ethyl}benzoic acid]",Dose-dependent reduction,Dose-dependent reduction,dose-dependent reduction,–
"COc1ccc(-c2ccc(OCc3cc(C(=O)NS(=O)(=O)c4ccccc4C)oc3C)cc2)nc1 [Compound D, 4-((4-(5-methoxypyridin-2-yl)phenoxy)methyl)-5-methyl-N-(o-tolylsulfonyl)furan-2-carboxamide]",Dose-dependent reduction,Dose-dependent reduction,dose-dependent reduction,–
"Cc1sc(C)c(C(=O)NC2(c3ccc(C(=O)O)cc3)CC2)c1Cc1ccc(C(F)(F)F)cc1 [Compound E, 4-{1-[({2,5-dimethyl-4-[4-(trifluoromethyl)benzyl]-3-thienyl}carbonyl)amino]cyclopropyl}benzoic acid]",Dose-dependent reduction,Dose-dependent reduction,dose-dependent reduction,–
COc1ccc2c(c1)c(CC(=O)O)c(C)n2C(=O)c1ccc(Cl)cc1 [indomethacin],–,–,–,effect on DSS-induced colitis [3]: aggravated; effect on allergic contact dermatitis [4]: worse
